Target: PI3Kalpha (Homo sapiens (Human), UniProt P42336)
Settings: read-out: IC50 PI3K
Protocol: Plot the concentration of each compound versus the emission ratio. […] Determination of IC50 values can be obtained by curve fitting (sigmoidal dose response, variable slope) using Prism software from GraphPad).
Method Type: Filter-Binding-Assay
Compounds are serially diluted in assay buffer+6% DMSO and 10 μl of each dilution is added per well of a 96-well plate (compounds are tested in duplicates) and mixed with 30 μl of the lipid vesicles containing PDGFR-Peptide (0.5 μM final) and PI3K alpha (25 ng/well final). The mixture is then incubated for 20 minutes at room temperature. Subsequently, 20 μl of assay buffer containing 3 μM cold ATP and 0.5 μCi/20 μl 33P-ATP are added. The plates are then incubated at room temperature for 120 minutes (shaking with 300 rpm). The reaction mix is transferred onto filter plates using “filtermate harvester” from Packard: filter plates are rinsed with PBS, then the reaction mix is filtered onto the filter plate, washed 5 times with PBS and are allowed to dry for 30-60 minutes at 50° C.
As positive control serve wells containing vehicle controls (1% DMSO in assay buffer), showing non-inhibited kinase activity (high values). Wells containing assay buffer instead of enzyme can serve as control for background activity (low values).
Calculate IC50 values using the Smiley program (based on GrapPad Prism)

Chain of PI3Kalpha (P42336 whole entry, looked up): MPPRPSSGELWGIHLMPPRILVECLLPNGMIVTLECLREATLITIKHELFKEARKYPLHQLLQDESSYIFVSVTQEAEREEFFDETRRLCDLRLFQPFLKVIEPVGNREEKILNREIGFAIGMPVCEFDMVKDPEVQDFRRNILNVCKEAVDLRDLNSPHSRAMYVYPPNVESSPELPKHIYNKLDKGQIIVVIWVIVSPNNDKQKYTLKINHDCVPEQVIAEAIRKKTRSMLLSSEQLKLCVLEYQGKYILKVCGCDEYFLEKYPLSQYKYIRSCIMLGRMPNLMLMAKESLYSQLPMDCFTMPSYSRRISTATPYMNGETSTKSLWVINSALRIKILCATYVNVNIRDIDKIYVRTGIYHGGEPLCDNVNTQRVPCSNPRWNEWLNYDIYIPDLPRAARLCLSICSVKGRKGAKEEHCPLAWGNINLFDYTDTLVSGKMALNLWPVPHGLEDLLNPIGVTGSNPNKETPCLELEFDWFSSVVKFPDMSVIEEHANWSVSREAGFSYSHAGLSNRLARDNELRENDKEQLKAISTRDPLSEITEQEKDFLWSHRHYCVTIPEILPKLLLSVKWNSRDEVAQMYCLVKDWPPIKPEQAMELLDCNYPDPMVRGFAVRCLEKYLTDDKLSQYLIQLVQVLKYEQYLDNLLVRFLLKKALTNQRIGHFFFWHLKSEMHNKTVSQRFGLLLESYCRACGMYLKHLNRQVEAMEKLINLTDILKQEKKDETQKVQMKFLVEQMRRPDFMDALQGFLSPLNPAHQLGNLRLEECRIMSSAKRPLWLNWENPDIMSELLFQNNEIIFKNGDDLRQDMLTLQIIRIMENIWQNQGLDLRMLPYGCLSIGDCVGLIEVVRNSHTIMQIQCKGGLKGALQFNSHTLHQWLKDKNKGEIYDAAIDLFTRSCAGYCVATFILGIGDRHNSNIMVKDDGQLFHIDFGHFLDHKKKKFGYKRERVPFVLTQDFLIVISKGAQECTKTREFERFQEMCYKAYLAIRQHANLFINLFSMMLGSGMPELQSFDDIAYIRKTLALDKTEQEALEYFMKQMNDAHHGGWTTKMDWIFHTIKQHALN

SMILES | IC50 [nM]
CCc1ncnc(-c2ccc(C(=O)N3CCN(Cc4ccccc4)CC3)c(F)c2)c1C#Cc1ccc(N)nc1C [Example D-24] | 1020
CCc1ncnc(-c2ccc(C(=O)NC3CCCN(C)C3)c(Cl)c2)c1C#Cc1ccc(N)nc1 (stereo not shown) [Example E-22] | 510
CCc1ncnc(-c2ccc(C(=O)NCC3(C)COC3)c(C)c2)c1C#Cc1ccc(N)nc1 [Example E-134] | 44.9
CCc1ncnc(-c2ccc(C(=O)N3CC[S+]([O-])CC3)c(C)c2)c1C#Cc1ccc(N)nc1 [Example E-121] | 63.9
CCc1ncnc(-c2cc(F)c(C(=O)N3CCN(C(C)C)CC3)c(F)c2)c1C#Cc1ccc(N)nc1 [Example E-2] | 237
CCc1ncnc(-c2ccc(C(=O)N3CCC(C(C)(C)O)CC3)c(C(F)(F)F)c2)c1C#Cc1ccc(N)nc1 [Example E-232] | 142
CCc1ncnc(-c2ccc(C(=O)N3CCN(C)CC3)c(F)c2)c1C#Cc1ccc(N)nc1 [Example D-8] | 215
CCc1ncnc(-c2ccc(C(=O)N3CCN(CC4CCCO4)CC3)c(F)c2)c1C#Cc1ccc(N)nc1 [Example D-88] | 118
CCc1ncnc(-c2ccc(C(=O)N3CCCC(O)C3)c(OC)c2)c1C#Cc1ccc(N)nc1 (stereo not shown) [Example E-46] | 104
CCCN1CCN(C(=O)c2c(F)cc(-c3ncnc(CC)c3C#Cc3ccc(N)nc3)cc2F)CC1 [Example E-4] | 133
CCOC(=O)N1CCN(C(=O)c2ccc(-c3ncnc(CC)c3C#Cc3ccc(N)nc3)cc2Cl)CC1 [Example E-82] | 81.7
CCc1ncnc(-c2ccc(C(=O)N3CCN(C4CCC4)CC3)c(Cl)c2)c1C#Cc1ccc(N)nc1 [Example E-252] | 48.2
CCc1ncnc(-c2ccc(C(=O)N3CCC4(CC3)COC4)c(F)c2)c1C#Cc1ccc(N)nc1 [Example E-164] | 154
CCc1ncnc(-c2ccc(C(=O)N(C)C3CCN(C)CC3)c(F)c2)c1C#Cc1ccc(N)nc1 [Example D-3] | 574
CCc1ncnc(-c2ccc(C(=O)N(C)O)c(F)c2)c1C#Cc1ccc(N)nc1 [Example D-68] | 42
CCc1ncnc(-c2cc(F)c(C(=O)N3CCN(C4CCCC4O)CC3)c(Cl)c2)c1C#Cc1ccc(N)nc1 (stereo not shown) [Example E-308] | 63.4
CCc1ncnc(-c2ccc(C(=O)N(C)C3CCS(=O)(=O)C3)c(F)c2)c1C#Cc1ccc(N)nc1 [Example D-216] | 59
CCc1ncnc(-c2ccc(C(=O)N3CCN4CCC[C@H]4C3)c(F)c2)c1C#Cc1ccc(N)nc1 [Example E-142] | 107
CCc1ncnc(-c2cc(F)c(C(=O)N3CCN(C4CCC4)CC3)c(Cl)c2)c1C#Cc1ccc(N)nc1 [Example E-160] | 115
CCc1ncnc(-c2ccc(C(=O)N3CCN(CC(F)F)CC3)c(F)c2)c1C#Cc1ccc(N)nc1 [Example D-61] | 86
CCc1ncnc(-c2ccc(C(=O)N3CCCC(N(C)C)C3)c(OC)c2)c1C#Cc1ccc(N)nc1 (stereo not shown) [Example E-51] | 205
CCc1ncnc(-c2ccc(C(=O)N3CCN(CC4CC4)CC3)c(Cl)c2)c1C#Cc1ccc(N)nc1 [Example D-136] | 228
CCc1ncnc(-c2cc(F)c(C(=O)N3CCN(CCNS(C)(=O)=O)CC3)c(Cl)c2)c1C#Cc1ccc(N)nc1 [Example E-159] | 25.8
CCc1ncnc(-c2ccc(C(=O)N3C[C@@H]4CCN[C@@H]4C3)c(F)c2)c1C#Cc1ccc(N)nc1 [Example E-332] | 655
CCc1ncnc(-c2ccc(C(=O)N3CCN(C(C)C)CC3)c(F)c2)c1C#Cc1ccc(N)nc1 [Example D-122] | 198

SMILES | IC50 [nM]
CCc1ncnc(-c2ccc(C(=O)N3CCN(CCOCCO)CC3)c(F)c2)c1C#Cc1ccc(N)nc1 [Example E-345] | 109
CCc1ncnc(-c2cc(F)c(C(=O)N3CCC4(CC3)CN(C)C4)c(F)c2)c1C#Cc1ccc(N)nc1 [Example E-336] | 773
CCc1ncnc(-c2ccc(C(=O)N3CC[C@H](N(C)C)C3)c(Cl)c2)c1C#Cc1ccc(NC)nc1 [Example E-190] | 175
Cc1ncnc(-c2ccc(C(=O)N3CCCO3)c(Cl)c2)c1C#Cc1ccc(N)nc1 [Example D-230] | 37
CCc1ncnc(-c2ccc(C(=O)NCCN3CCOCC3)c(Cl)c2)c1C#Cc1ccc(N)nc1 [Example E-84] | 113
CCCCN1CCN(C(=O)c2ccc(-c3ncnc(CC)c3C#Cc3ccc(N)nc3)cc2OC)CC1 [Example E-43] | 502
CCc1ncnc(-c2ccc(C(=O)N3CC[C@@H](O)C3)c(Cl)c2)c1C#Cc1ccc(N)nc1 [Example D-146] | 66
CCc1ncnc(-c2ccc(C(=O)N3CCC4(CC3)CN(C(=O)OC(C)(C)C)CCO4)c(F)c2)c1C#Cc1ccc(N)nc1 [Example E-321] | 412
CCc1ncnc(-c2ccc(C(=O)N3C[C@@H]4CCN(C(=O)OC(C)(C)C)[C@@H]4C3)c(F)c2)c1C#Cc1ccc(N)nc1 [Example E-331] | 151
CCc1ncnc(-c2ccc(C(=O)N3CCN(CC(F)F)CC3)c(Cl)c2)c1C#Cc1ccc(NC)nc1 [Example E-187] | 162
CCc1ncnc(-c2ccc(C(=O)N3CCNCC3)c(F)c2)c1C#Cc1ccc(N)nc1 [Example D-113] | 57
CCc1ncnc(-c2ccc(C(=O)N3CCC(CN(C)C)CC3)c(F)c2)c1C#Cc1ccc(N)nc1 [Example E-272] | 475
CCc1ncnc(-c2ccc(C(=O)N3CCC(N4CCOCC4)CC3)c(F)c2)c1C#Cc1ccc(NC)nc1 [Example E-178] | 335
CCc1ncnc(-c2ccc(C(=O)N3CCN(C(C)=O)CC3)c(F)c2)c1C#Cc1ccc(N)nc1C [Example D-82] | 146
CCc1ncnc(-c2ccc(C(=O)N3CCC(N4CCC(C)CC4)C3)c(OC)c2)c1C#Cc1ccc(N)nc1 (stereo not shown) [Example E-52] | 578
CCc1ncnc(-c2ccc(C(=O)NC)c(Cl)c2)c1C#Cc1ccc(N)nc1 [Example C-12] | 71
CCc1ncnc(-c2ccc(N3CCOCC3)nc2)c1C#Cc1ccc(N)nc1 [Example C-32] | 32
CCc1ncnc(-c2ccc(C(=O)N3CCN(Cc4ccccc4)CC3)c(C)c2)c1C#Cc1ccc(N)nc1 [Example E-115] | 154
CCc1ncnc(-c2ccc(C(=O)N3CCN(S(=O)(=O)CC)CC3)c(F)c2)c1C#Cc1ccc(N)nc1C [Example D-19] | 92
CCc1ncnc(-c2ccc(C(=O)N3CCC(N4CCOCC4)CC3)c(F)c2)c1C#Cc1ccc(N)nc1 [Example D-63] | 234
CCc1ncnc(-c2ccc(C(=O)N3CCN(C(C)(C)C)CC3)c(OC)c2)c1C#Cc1ccc(N)nc1 [Example D-48] | 251
CCc1ncnc(-c2ccc(C(=O)N3CCN(CC(F)(F)F)CC3)c(OC)c2)c1C#Cc1ccc(N)nc1 [Example D-54] | 81
CCc1ncnc(-c2ccc(C(=O)N3CCOCC3)c(OC)c2)c1C#Cc1ccc(N)nc1 [Example E-48] | 100
CCc1ncnc(-c2ccc(C(=O)NCCN3CCOCC3)c(OC)c2)c1C#Cc1ccc(N)nc1 [Example E-64] | 118
CCc1ncnc(-c2ccc(C(=O)N3CCC4(CC3)CNCCO4)c(F)c2)c1C#Cc1ccc(N)nc1 [Example E-322] | 391

SMILES | IC50 [nM]
CCc1ncnc(-c2cc(F)c(C(=O)N3CCN(C)C(=O)C3)c(F)c2)c1C#Cc1ccc(NC)nc1 [Example E-208] | 176
Cc1ncnc(-c2ccc(C(=O)N3CC(O)CO3)c(F)c2)c1C#Cc1ccc(N)nc1 [Example D-228] | 52
CCc1ncnc(-c2ccc(C(=O)N3CCN(CC(F)F)CC3)c(F)c2)c1C#Cc1ccc(N)nc1C [Example D-12] | 163
CCc1ncnc(-c2ccc(C(F)(F)F)nc2)c1C#Cc1ccc(N)nc1 [Example C-28] | 58
CCc1ncnc(-c2ccc(C(=O)NCC3CCCN(C)C3)c(F)c2)c1C#Cc1ccc(N)nc1 [Example D-74] | 630
CCc1ncnc(-c2ccc(C(=O)N(C)C3CCS(=O)(=O)C3)c(OC)c2)c1C#Cc1ccc(N)nc1 (stereo not shown) [Example E-61] | 103
CCc1ncnc(-c2ccc(C(=O)N3CCN(/C(=N\C#N)NC)CC3)c(F)c2)c1C#Cc1ccc(N)nc1 [Example D-117] | 27
CCc1ncnc(-c2ccc(C(=O)N3CCN(C(C)(C)C)CC3)c(Cl)c2)c1C#Cc1ccc(N)nc1 [Example D-43] | 436
CCc1ncnc(-c2ccc(C(=O)N3CCN(C4CCOCC4)CC3)c(F)c2)c1C#Cc1ccc(NC)nc1 [Example E-179] | 276
CCc1ncnc(-c2ccc(C(=O)N3CCC(O)CC3)c(Cl)c2)c1C#Cc1ccc(N)nc1 [Example E-38] | 52.9
CCc1ncnc(-c2ccc(C(=O)N3CCN(CC4CCCCC4)CC3)c(F)c2)c1C#Cc1ccc(N)nc1 [Example D-94] | 1820
CCc1ncnc(-c2ccc(C(=O)N3CC(O)CO3)cc2)c1C#Cc1ccc(N)nc1 [Example D-224] | 39
CCc1ncnc(-c2ccc(C(=O)N3CCN(Cc4nc(C)c(C)o4)CC3)c(Cl)c2)c1C#Cc1ccc(N)nc1 [Example E-315] | 127
CCc1ncnc(-c2cc(F)c(C(=O)N3CCC4(CC3)CNC4)c(Cl)c2)c1C#Cc1ccc(N)nc1 [Example E-162] | 540
CCc1ncnc(-c2ccc(C(=O)N3CCN(C4CCOCC4)CC3)c(C)c2)c1C#Cc1ccc(N)nc1 [Example E-88] | 84.4
CCc1ncnc(-c2ccc(C(=O)N3CCC(C(C)(C)O)CC3)c(Cl)c2)c1C#Cc1ccc(NC)nc1 [Example E-184] | 399
CCc1ncnc(-c2ccc(C(=O)N3CCN(C4CCCC4O)CC3)c(Cl)c2)c1C#Cc1ccc(N)nc1 (stereo not shown) [Example E-316] | 57.1
CCc1ncnc(-c2cc(F)c(C(=O)NCCN3CCNCC3)c(F)c2)c1C#Cc1ccc(N)nc1 [Example E-174] | 165
CCc1ncnc(-c2ccc(C(=O)N3CCCO3)c(OC)c2)c1C#Cc1ccc(N)nc1 [Example E-50] | 157
CCc1ncnc(-c2ccc(C(=O)N3CCC(OC)CC3)c(Cl)c2)c1C#Cc1ccc(N)nc1 [Example E-24] | 93.5
CCc1ncnc(-c2ccc(C(=O)N3CCN(CC)CC3)c(Cl)c2)c1C#Cc1ccc(N)nc1 [Example D-45] | 186
Cc1ncnc(-c2ccc(C(=O)N(C)C)c(F)c2)c1C#Cc1ccc(N)nc1 [Example C-11] | 47
Cc1ncnc(-c2ccc(Cl)c(C(=O)N3CCOCC3)c2)c1C#Cc1ccc(N)nc1 [Example C-40] | 459

Source: US8633183B2 (priority 2010, dated 2014)
